In patent publication EP1090023B1 (GLAXO GROUP LIMITED, priority 1998, dated 1999):

Assays:
Format in all cases: cell-based
adenosine 2a = adenosine 2a (Homo sapiens, UniProt P29274); test: Agonist activity against adenosine receptor subtypes, CHO cells with cAMP response element/SPAP reporter (basal cAMP); details: ratio to EC50 of NECA; transfected CHO cells; effect on basal cAMP via SPAP
Experimental: (§1) Compounds of the invention were tested for in vitro and in vivo biological activity in accordance with the following screens: • (1) Agonist activity against adenosine 2a, adenosine 1 and adenosine 3 receptor subtypes.
(§2) Agonist selectivity of compounds against other human adenosine receptors was determined using Chinese hamster ovary (CHO) cells transfected with the gene for the relevant human adenosine receptor following a method based on that of Castanon and Spevak, 1994 . The CHO cells were also transfected with cyclic AMP response elements promoting the gene for secreted placental alkaline phosphatase (SPAP) (Wood, 1995). The effect of test compounds was determined by their effects on basal levels of cAMP (A2a) or on forskolin-enhanced cAMP (A1 and A3) as reflected by changes in levels of SPAP. EC50 values for compounds were then determined as a ratio to that of the non-selective agonist N-ethyl carboxamide adenosine (NECA).

adenosine 1 = target: T1, adenosine 1 (Homo sapiens, UniProt P30542); test: Agonist activity against adenosine receptor subtypes, CHO cells with cAMP response element/SPAP reporter (forskolin-enhanced cAMP); details: ratio to EC50 of NECA; transfected CHO cells; effect on forskolin-enhanced cAMP via SPAP
T1 sequence (P30542 1-326): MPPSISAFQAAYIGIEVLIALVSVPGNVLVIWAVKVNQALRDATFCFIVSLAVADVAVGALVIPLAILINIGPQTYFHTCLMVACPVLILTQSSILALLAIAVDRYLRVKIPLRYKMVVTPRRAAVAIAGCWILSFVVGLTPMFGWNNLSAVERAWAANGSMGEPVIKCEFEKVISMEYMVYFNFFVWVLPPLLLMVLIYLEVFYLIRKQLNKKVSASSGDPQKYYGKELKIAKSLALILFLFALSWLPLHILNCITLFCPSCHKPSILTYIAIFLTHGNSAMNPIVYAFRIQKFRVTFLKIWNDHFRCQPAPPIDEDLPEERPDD
Experimental: as §1, §2

adenosine 3 = target: T2, adenosine 3 (Homo sapiens, UniProt P0DMS8); test: as above; details: ratio to EC50 of NECA; transfected CHO cells; effect on forskolin-enhanced cAMP via SPAP
T2 sequence (P0DMS8 1-318): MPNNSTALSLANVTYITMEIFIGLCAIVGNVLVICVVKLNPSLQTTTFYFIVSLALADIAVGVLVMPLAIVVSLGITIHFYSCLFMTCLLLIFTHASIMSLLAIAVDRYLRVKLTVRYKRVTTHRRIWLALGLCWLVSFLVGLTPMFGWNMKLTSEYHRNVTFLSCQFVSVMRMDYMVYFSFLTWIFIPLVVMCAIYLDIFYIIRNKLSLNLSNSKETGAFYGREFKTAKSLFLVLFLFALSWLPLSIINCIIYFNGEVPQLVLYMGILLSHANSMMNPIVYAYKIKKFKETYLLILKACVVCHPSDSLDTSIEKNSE
Experimental: as §1, §2

adenosine 2a, sequence (P29274 whole entry): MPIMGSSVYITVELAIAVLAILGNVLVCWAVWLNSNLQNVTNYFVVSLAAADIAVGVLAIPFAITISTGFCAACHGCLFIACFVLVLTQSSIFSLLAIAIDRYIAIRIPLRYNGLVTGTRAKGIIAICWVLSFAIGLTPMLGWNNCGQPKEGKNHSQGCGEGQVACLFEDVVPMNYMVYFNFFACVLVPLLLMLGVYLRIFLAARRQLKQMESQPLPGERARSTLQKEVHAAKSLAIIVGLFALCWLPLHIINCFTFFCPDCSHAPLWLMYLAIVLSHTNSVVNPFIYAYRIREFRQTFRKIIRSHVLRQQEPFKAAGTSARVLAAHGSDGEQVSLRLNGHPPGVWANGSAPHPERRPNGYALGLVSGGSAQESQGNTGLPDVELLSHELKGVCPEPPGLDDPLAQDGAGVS

SMILES	A2a (EC50 values as a ratio of that of NECA) (adenosine 2a)	A1 (EC50 values as a ratio of that of NECA) (adenosine 1)	A3 (EC50 values as a ratio of that of NECA) (adenosine 3)
CCc1nc([C@H]2O[C@@H](n3cnc4c(NCC(c5ccccc5)c5ccccc5)nc(NCCN5CCOCC5)nc43)[C@H](O)[C@@H]2O)no1.O=CO [Example 15, (2R,3R,4S,5R)-2-[6-(2,2-Diphenyl-ethylamino)-2-(2-morpholin-4-yl-ethylamino)-purin-9-yl]-5-(5-ethyl-[1,2,4]oxadiazol-3-yl)-tetrahydro-furan-3,4-diol formate]	13.62	>=8649	>190
CCc1nc([C@H]2O[C@@H](n3cnc4c(NCC(c5ccccc5)c5ccccc5)nc(N[C@H](CO)Cc5ccccc5)nc43)[C@H](O)[C@@H]2O)no1.O=CO [Example 16, (2R,3R,4S,5R)-2-[6-(2,2-Diphenyl-ethylamino)-2-(1S-hydroxymethyl-2-phenyl-ethylamino)-purin-9-yl]-5-(5-ethyl-[1,2,4]oxadiazol-3-yl)-tetrahydro-furan-3,4-diol formate]	5.75	4514.96	>257
Cc1cnc([C@H]2O[C@@H](n3cnc4c(NCCC5CCCCC5)nc(N[C@H](CO)Cc5ccccc5)nc43)[C@H](O)[C@@H]2O)o1.O=CO [Example 17, (2R,3R,4S,5S)-2-[6-(2-Cyclohexyl-ethylamino)-2-(1S-hydroxymethyl-2-phenyl-ethylamino)-purin-9-yl]-5-(5-methyl-oxazol-2-yl)-tetrahydro-furan-3,4-diol formate]	5.45	538	>518
Cc1cnc([C@H]2O[C@@H](n3cnc4c(NCC(c5ccccc5)c5ccccc5)nc(N[C@@H]5CCNC5)nc43)[C@H](O)[C@@H]2O)o1.O=CO.O=CO [Example 18, (2R,3R,4S,5S)-2-[6-(2,2-Diphenyl-ethlyamino)-2-(pyrrolidin-3R-ylamino)-purin-9-yl]-5-(5-methyl-oxazol-2-yl)-tetrahydro-furan-3,4-diol diformate]	18.9	5515	>223
Cc1nnc([C@H]2O[C@@H](n3cnc4c(NCC(c5ccccc5)c5ccccc5)nc(NCCc5cn(C)cn5)nc43)[C@H](O)[C@@H]2O)s1.O=CO.O=CO [Example 19, (2R,3R,4S,5S)-2-{6-(2,2-Diphenyl-ethylamino)-2-[2-(1-methyl-1H-imidazol-4-yl)-ethylamino]-purin-9-yl}-5-(5-methyl-[1,3,4]thiadiazol-2-yl)-tetrahydro-furan-3,4-diol diformate]	4.05	3172	>293
Cc1nnc([C@H]2O[C@@H](n3cnc4c(NCC(c5ccccc5)c5ccccc5)nc(N[C@H](CO)Cc5ccccc5)nc43)[C@H](O)[C@@H]2O)s1.O=CO [Example 20, (2R,3R,4S,5S)-2-[6-(2,2-Diphenyl-ethylamino)-2-(1S-hydroxymethyl-2-phenyl-ethylamino)-purin-9-yl]-5-(5-methyl-[1,3,4]thiadiazol-2-yl)-tetrahydro-furan-3,4-diol formate]	17.7	2625	>470
CCc1nnc([C@H]2O[C@@H](n3cnc4c(NCC(c5ccccc5)c5ccccc5)nc(N[C@H](CO)Cc5ccccc5)nc43)[C@H](O)[C@@H]2O)o1.O=CO [Example 21, (2R,3R,4S,5S)-2-[6-(2,2-Diphenyl-ethylamino)-2-(1S-hydroxymethyl-2-phenyl-ethylamino)-purin-9-yl]-5-(5-ethyl-[1,3,4]oxadiazol-2-yl)-tetrahydro-furan-3,4-diol formate]	3.04	568.06	>173
CCc1nnc([C@H]2O[C@@H](n3cnc4c(NCC(c5ccccc5)c5ccccc5)nc(NCCN5CCCCC5)nc43)[C@H](O)[C@@H]2O)o1.O=CO [Example 22, (2R,3R,4S,5S)-2-[6-(2,2-Diphenyl-ethylamino)-2-(2-piperidin-1-yl-ethylamino)-purin-9-yl]-5-(5-ethyl-[1,3,4]oxadiazol-2-yl)-tetrahydro-furan-3,4-diol formate]	12.28	101.96	>180
CCc1nnc([C@H]2O[C@@H](n3cnc4c(NCC(c5ccccc5)c5ccccc5)nc(NCCN5CCOCC5)nc43)[C@H](O)[C@@H]2O)o1.O=CO [Example 23, (2R,3R,4S,5S)-2-[6-(2,2-Diphenyl-ethylamino)-2-(2-morpholin-4-yl-ethylamino)-purin-9-yl]-5-(5-ethyl-[1,3,4]oxadiazol-2-yl)-tetrahydro-furan-3,4-diol formate]	6.16	101.96	>180
CCc1nnc([C@H]2O[C@@H](n3cnc4c(NCC(c5ccccc5)c5ccccc5)nc(NCCc5ccccn5)nc43)[C@H](O)[C@@H]2O)o1.O=CO [Example 24, (2R,3R,4S,5S)-2-[6-(2,2-Diphenyl-ethylamino)-2-(2-pyridin-2-yl-ethylamino)-purin-9-yl]-5-(5-ethyl-[1,3,4]oxadiazol-2-yl)-tetrahydro-furan-3,4-diol formate]	6.04	390.97	>175
CCc1nnc([C@H]2O[C@@H](n3cnc4c(NCC(c5ccccc5)c5ccccc5)nc(N[C@H]5CC[C@H](N)CC5)nc43)[C@H](O)[C@@H]2O)o1.O=CO [Example 25, (2R,3R,4S,5S)-2-[2-(trans-4-Amino-cyclohexylamino)-6-(2,2-diphenyl-ethylamino)-purin-9-yl]-5-(5-ethyl-[1,3,4]oxadiazol-2-yl)-tetrahydro-furan-3,4-diol formate]	4.81	398.28	>136
CCc1nnc([C@H]2O[C@@H](n3cnc4c(NCC(c5ccccc5)c5ccccc5)nc(N[C@@H]5CCNC5)nc43)[C@H](O)[C@@H]2O)o1.O=CO [Example 26, (2R,3R,4S,5S)-2-[6-(2,2-Diphenyl-ethylamino)-2-(pyrrolidin-3R-ylamino)-purin-9-yl]-5-(5-ethyl-[1,3,4]oxadiazol-2-yl)-tetrahydro-furan-3,4-diol formate]	5.57	432	>162
CCc1nnc([C@H]2O[C@@H](n3cnc4c(NCC(c5ccccc5)c5ccccc5)nc(NCCc5ccccn5)nc43)[C@H](O)[C@@H]2O)[nH]1.O=CO [Example 27, (2R,3R,4S,5R)-2-[6-(2,2-Diphenyl-ethylamino)-2-(2-pyridin-2-yl-ethylamino)-purin-9-yl]-5-(5-ethyl-4H-[1,2,4]triazol-3-yl)-tetrahydro-furan-3,4-diol formate]	21.8	135.9	>183
CCc1nc([C@H]2O[C@@H](n3cnc4c(NCC(c5ccccc5)c5ccccc5)nc(NCCNC(=N)N)nc43)[C@H](O)[C@@H]2O)no1.O=CO.O=CO [Example 29, N-(2-{6-(2,2-Diphenyl-ethylamino)-9-[5R-(5-ethyl-[1,2,4]oxadiazol-3-yl)-3R,4S-dihydroxy-tetrahydro-furan-2R-yl]-9H-purin-2-ylamino}-ethyl)-guanidine diformate]	30.7	>2147	>284
CCn1cnc(C2OC(n3cnc4c(NCC(c5ccccc5)c5ccccc5)nc(NC5CCC(N)CC5)nc43)C(O)C2O)n1.O=CO.O=CO [Example 30, (2R,3R,4S,5R)-2-[2-(trans-4-Amino-cyclohexylamino)-6-(2,2-diphenyl-ethylamino)-purin-9-yl]-5-(1-ethyl-1H-[1,2,4]triazol-3-yl)-tetrahydro-furan-3,4-diol diformate]	13.27	2948.1	>206
